Values quoted from earlier work as cited in patent US6949636B2, “Intron/exon structure of the human and mouse β3-adrenergic receptor genes” (Centre National de la Recherche Scientifique, priority 1989, dated 2005).

Assays:
[1] = molecular target: β3-adrenergic receptor (Homo sapiens, UniProt P13945); conditions: activity increases in the order salbutamol, BRL 28410, BRL 37344, (1)-isoproterenol; from earlier filings
[2] = molecular target: mouse β3-adrenergic receptor (Mus musculus, UniProt P25962); conditions: background statement, earlier filing / Nahmias et al.
Chain of mouse β3-adrenergic receptor (P25962 1-388 limits assumed): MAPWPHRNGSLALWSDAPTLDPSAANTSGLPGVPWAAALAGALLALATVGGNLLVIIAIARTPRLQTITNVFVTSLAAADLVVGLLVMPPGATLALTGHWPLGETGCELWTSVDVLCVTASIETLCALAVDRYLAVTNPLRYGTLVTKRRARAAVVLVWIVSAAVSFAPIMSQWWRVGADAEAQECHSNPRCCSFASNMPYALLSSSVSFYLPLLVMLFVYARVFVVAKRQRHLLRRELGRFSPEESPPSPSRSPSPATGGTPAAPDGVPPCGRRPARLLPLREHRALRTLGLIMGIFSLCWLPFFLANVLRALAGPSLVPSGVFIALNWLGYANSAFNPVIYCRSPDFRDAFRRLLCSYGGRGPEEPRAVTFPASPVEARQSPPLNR

Chain of β3-adrenergic receptor (P13945 1-402 limits assumed): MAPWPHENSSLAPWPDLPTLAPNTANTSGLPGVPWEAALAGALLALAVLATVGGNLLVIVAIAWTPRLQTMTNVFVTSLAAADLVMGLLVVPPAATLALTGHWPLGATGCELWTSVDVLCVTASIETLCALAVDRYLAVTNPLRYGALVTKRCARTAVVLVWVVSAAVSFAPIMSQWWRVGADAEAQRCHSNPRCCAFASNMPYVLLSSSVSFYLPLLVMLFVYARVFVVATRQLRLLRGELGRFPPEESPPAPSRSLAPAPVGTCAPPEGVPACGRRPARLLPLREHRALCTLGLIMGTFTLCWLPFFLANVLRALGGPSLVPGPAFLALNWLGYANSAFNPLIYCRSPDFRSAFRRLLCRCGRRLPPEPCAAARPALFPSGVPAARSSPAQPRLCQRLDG

| Compound | activating adenylate cyclase in the presence of an agonist [1] | activation of mouse β3-adrenergic receptor [2] |
| --- | --- | --- |
| C[C@H](Cc1ccc(C(=O)O)cc1)NC[C@H](O)c1ccccc1 [BRL 28410] | activating adenylate cyclase |  |
| CC(C)(C)NCC(O)COc1cccc2[nH]c(=O)[nH]c12 (centres unmarked) [CGP 12177A] |  | can be activated |
| C=CCOc1ccccc1OCC(O)CNC(C)C (centres unmarked) [oxprenolol] |  | can be activated |
| CC(C)NCC(O)COc1cccc2[nH]ccc12 (centres unmarked) [pindolol] |  | can be activated |
| CC(C)(C)NCC(O)c1ccc(O)c(CO)c1 (centres unmarked) [salbutamol] | activating adenylate cyclase |  |
